Blank lines part the entries; values can stand above or below the substance they belong to. No end group written: not given here. *: point of attachment. Myristoyl = CCCCCCCCCCCCCC(=O)*
What was measured:
SK-Mel2 melanoma cells = assay type: cell-based; conditions: for IC50: MTT assay, SK-Mel2 melanoma cells, 48 hour exposure, Table 4; for inhibitory activity on SK-Mel2 melanoma cells: 48 hours of exposure, second intracellular loop peptides, comment on Table 4; for inhibitory activity of third loop peptides: comment on Table 5; for inhibition of proliferation of SK-Mel2 cells: 60 hours exposure, FIG. 6
Procedure: (§1) DU145 prostate cancer cells, PC3 prostate cancer cells, MCF7 breast cancer cells, or Mel-SK-2 melanoma cells (American Type Culture Collection, Manassas, Va.) are inoculated in 96 well plates at 200-400 cells/well density in DMEM medium containing 10% fetal bovine serum and allowed to attach for 24 hours. Cell suspension of 100 μl is used for each well. Polypeptides in 100 μl medium at 2× concentration are added the next day and kept in the CO2 incubator for 48 hours While the polypeptides are added at a final concentration between 1 nM and 10 μM, assays are performed on extra reference plates to determine the cell population density at time 0 (T0). The cells are stained with Promega Non-Radioactive Cell Proliferation Assay Kit (MTT) according to manufacture's protocol. The absorbance of the wells is determined at 544 nm by a FLUOstar/POLARstar® Galaxy MicroplateReader (BMG Labtechnologies GmbH, Germany). The assays are performed on control (C) and test (T) cells. Cellular responses are calculated from the data using the following formula: 100×[(T−T0)/(C−T0)] for T>T0 and 100×[(T−T0)/T0] for T<T0.
(§2) Polypeptides based on the second or third intracellular loop of SMO (SMOi2 or i3 polypeptides) (as shown in Table 1) are synthesized as described in Example 1 and are tested as described in Example 2 using MCF-7 breast cancer cells or SK-Mel2 melanoma cells. The IC50 of each peptide as determined by the MTT assay in SK-Mel2 melanoma cells after 48 hour exposure to the peptide is shown in Tables 4 and 5.
Peptides SMOi2-18 and SMOi2-21 are made as essentially described in Example 1 and tested as described in Example 2 using SK-Mel2 cells. Cells are exposed to polypeptides or peptidomimetics for 60 hours.

[1] = Critical micelle concentration by WMC-77 fluorescence; assay type: physicochemical; conditions: deionized water, 25° C., WMC-77 0.4 μM
Source text: To monitor the formation of hydrophobic nanoparticles, a fluorescing imidazoacridone compound WMC-77 (5-{3-[4-(aminopropyl)-piperazin-1-yl]-propylamino}-2,10b-diaza-aceanthrylen-6-one) is used (Tarasov et al., Photochem. Photobiol. 78: 313-322 (2003)). Compounds like WMC-77 tend to enhance their intrinsic fluorescence dramatically when entering an amphiphilic environment of biological macromolecules like DNA (Tarasova et al., 2003, supra) or hydrophobic core of typical micelles (Tarasov et al., Photochem. Photobiol. 70: 568-578 (1999)). […] Atmospheric oxygen quenching is found to be unimportant, since similar values of fluorescence intensity from BIAs are obtained before and after nitrogen purging. […] Uncorrected fluorescence emission spectra are obtained at 25° C. on a Single Photon Counting Spectrofluorometer FLUOROMAX®-2 (Horiba Jobin Yvon, Edison, N.J.). […]
The increase of peptide/fluorophore ratio causes the permanent increase of WMC-77 fluorescence emission intensity, leveling of at ˜2 μM. The changes in the fluorescence signal are similar to those observed during transfer of imidazoacridones from aqueous to non-polar media such as organic solvents (Tarasov et al., 1999, supra), to the cores of classic surfactant micelles (Tarasov et al., 1999, supra) or upon binding to DNA (Tarasov et al., 2003, supra). […]

[2] = system: gastric adenocarcinoma cells; test: Growth inhibition of gastric adenocarcinoma cells (viable cell mass); assay type: cell-based; conditions: 5 or 10 μM, FIG. 2
[3] = system: MCF-7 breast cancer cells; test: MTT growth inhibition assay in MCF-7 breast cancer cells; assay type: cell-based; conditions: 48-hour treatment, FIG. 1 / FIG. 3
Procedure: as §1, with “The cells are stained with Promega Non-Radioactive Cell Proliferation Assay Kit (MTT) according to manufacture's protocol.” left out, “The assays are performed on control (C) and test (T) cells.” left out, “T<T0. […]” for “T<T0.”
as §2

Substance: Ac-AKFSTHWAYTLK-εPal (all D-) [SMOi2-17]
IC50 (SK-Mel2 melanoma cells): 0.4 ± 0.1 nM

Substance: Ac-GTTYQPLSGKTSYK-εPal [SMOi2-7]
inhibitory activity on SK-Mel2 melanoma cells (SK-Mel2 melanoma cells): potent inhibitors

Substance: Ac-KFSTHWAYTLK- εPal (all D-) [SMOi2-20]
inhibitory activity on SK-Mel2 melanoma cells (SK-Mel2 melanoma cells): most potent inhibitors
IC50 (SK-Mel2 melanoma cells): 0.3 ± 0.1 nM

Substance: Ac-LAKFSTHWAYTLK-ε-Pal (all D-) [SMOi2-16]
IC50 (SK-Mel2 melanoma cells): 6 ± 0.5 nM

Substance: Ac-LLSEKAASKINETMLRK-[…]ε-Pal [SMO i3-6]
inhibitory activity of third loop peptides (SK-Mel2 melanoma cells): among the most potent polypeptides tested

Substance: Ac-LTYAWHTSFKAL [SMOi2-9]
inhibitory activity on SK-Mel2 melanoma cells (SK-Mel2 melanoma cells): significantly reduces the inhibitory activity

Substance: Ac-LTYAWHTSFKALGTTYQPLSGKTSYK- ε-Pal [SMOi2-4]
IC50 (SK-Mel2 melanoma cells): 1000 ± 100 nM

Substance: Ac-YAWHTSFKALGTTYQPLSGKTSYK- εPal [SMOi2-5]
IC50 (SK-Mel2 melanoma cells): 1000 ± 100 nM

Substance: Myristoyl-LTYAWHTSFKAL [SMOi2-26]
inhibitory activity on SK-Mel2 melanoma cells (SK-Mel2 melanoma cells): most potent inhibitors
potency relative to palmitoyl peptide (fold less potent) (SK-Mel2 melanoma cells; myristoyl instead of palmitoyl residue): 2.5 fold

Substance: Pal-LTYABpaHTSFKAL [SMOi2-18]
inhibitory activity on SK-Mel2 melanoma cells (SK-Mel2 melanoma cells): fairly active
inhibition of proliferation of SK-Mel2 cells (SK-Mel2 melanoma cells): even more potent than that of the polypeptide counterpart, SMOi2-8

Substance: Pal-LTYABpaHTSFKAL-Hcy-Biotin [SMOi2-21]
inhibitory activity on SK-Mel2 melanoma cells (SK-Mel2 melanoma cells): totally abolishes the activity
inhibition of proliferation of SK-Mel2 cells (SK-Mel2 melanoma cells): even more potent than that of the polypeptide counterpart, SMOi2-8

Substance: Pal-LTYAWHTSFK [SMOi2-12]
inhibitory activity on SK-Mel2 melanoma cells (SK-Mel2 melanoma cells): most potent inhibitors

Substance: Pal-LTYAWHTSFKA [SMOi2-11]
inhibitory activity on SK-Mel2 melanoma cells (SK-Mel2 melanoma cells): most potent inhibitors

critical micelle concentration [1]: 0.5 to 1 µM
Substance: Pal-LTYAWHTSFKAL [SMOi2-8]
inhibitory activity on SK-Mel2 melanoma cells (SK-Mel2 melanoma cells): most potent inhibitors

Substance: Pal-LTYAWHTSFKALGTTYQP [SMOi2-6]
inhibitory activity on SK-Mel2 melanoma cells (SK-Mel2 melanoma cells): potent inhibitors

Substance: Pal-LTYAWHTSFKALGTTYQPLSGKTSYK- ε-Pal [SMOi2-23]
inhibitory activity on SK-Mel2 melanoma cells (SK-Mel2 melanoma cells): most potent inhibitors

Substance: Pal-LTYAWHTSFKALGTTYQPLSGKYSY [SMOi2-1]
inhibition of growth of gastric adenocarcinoma cells compared with cyclopamine [2]: as well or better than cyclopamine
inhibition of growth of MCF-7 cells [3]: inhibit the growth of MCF-7 cells

Substance: Pal-TYAWHTSFKAL [SMOi2-10]
inhibitory activity on SK-Mel2 melanoma cells (SK-Mel2 melanoma cells): potent inhibitors

Substance: PalLFSIKSNHPGLLSEKAASKINETMLR [SMO i3-4]
inhibitory activity of third loop peptides (SK-Mel2 melanoma cells): significantly less active

Substance: PalLTYAWHTSFKAL (All D) [SMOi2-24]
inhibitory activity on SK-Mel2 melanoma cells (SK-Mel2 melanoma cells): most potent inhibitors

Substance: PalRGVMTLFSIKSNHPGLLS [SMO i3-8]
inhibitory activity of third loop peptides (SK-Mel2 melanoma cells): among the most potent polypeptides tested

Substance: PalRGVMTLFSIKSNHPGLLSEKA [SMO i3-2]
inhibitory activity of third loop peptides (SK-Mel2 melanoma cells): among the most potent polypeptides tested

Substance: PalRGVMTLFSIKSNHPGLLSEKAASKINETMLR [SMO i3-1]
inhibition of growth of gastric adenocarcinoma cells compared with cyclopamine [2]: as well or better than cyclopamine
inhibitory activity of third loop peptides (SK-Mel2 melanoma cells): among the most potent polypeptides tested
inhibition of growth of MCF-7 cells [3]: most significant effect on cell growth

Substance: SEKAASKINETMLRK-ε-Pal [SMO i3-12]
inhibitory activity of third loop peptides (SK-Mel2 melanoma cells): among the most potent polypeptides tested

Substance: VWFVVLTYAWHTSFKAL [SMOi2-14]
inhibitory activity on SK-Mel2 melanoma cells (SK-Mel2 melanoma cells): does not overcome the loss of activity
IC50 (SK-Mel2 melanoma cells): > 5000 nM

Substance: WFVVLTYAWHTSFKAL [SMOi2-15]
inhibitory activity on SK-Mel2 melanoma cells (SK-Mel2 melanoma cells): does not overcome the loss of activity
IC50 (SK-Mel2 melanoma cells): > 5000 nM

— patent US8546524B2, “Smoothened polypeptides and methods of use” (The United States of America, as represented by the …, priority 2006, dated 2013)
